Experimental data published in patent US6184374A, “Targeted cytotoxic anthracycline analogs” (priority 1998, dated 2001).
Values joined by “and” are separate entries in the source; they are usually repeats but may differ in a detail not shown here. Equal entries are not always repeated. Where two headings read alike, the source gives them in different places.

Key:
[1] = system: estrogen independent MXT mouse mammary cancers; assay: Treatment of estrogen independent MXT mouse mammary cancers (KS-49); format: in vivo
From the text: In order to compare the tumor inhibitory activity of cytotoxic doxorubicin derivative, Q6 and its targeted cytotoxic peptide conjugate, Q6^14 gL as well as the well known antineoplastic agent, DOX and to determine the optimal way of administration and the nontoxic doses, LH-RH receptor positive MXT (3.2) ovex tumor pieces (1 mm^3) were implanted s. c. in female B6 D2 F1 mice. One day after transplantation the mice were randomly divided into groups of five animals and the treatment started. The compounds were dissolved in 0.1% trifluoroacetic acid (pH 2) and given intraperitoneally.

[2] = system: MCF-7 human mammary carcinoma cell line; format: cell-based; settings: for T/C Value: Table 17-1; for T/C Value on MCF-7 Cell Line: Table 18-1
From the text: (§1) MXT estrogen-independen mouse mammary carcinoma cell line was obtained from Dr. Gunter Berndhart, University of Regensburg, Germany. All the other cell lines used in the determination of the antiproliferative activity of the compounds of this invention were obtained from the American Type Culture Collection (ATCC).
(§2) For the evaluation of the activity of the analogs, a colorimetric cytotoxicity assay in microtitration plates was used based on quantification of biomass by staining cells with crystal violet, which correlates very well with determination of cell numbers. (Reile et al.; Anal. Biochem. 187, 262-267, 1990; Bernhardt G. et al, J. Cancer Res. Clin. Oncol. (1992), 118, 35-43; Spruss Th. et al, J. Cancer Res. Clin. Oncol 117, 435-443, 1991; Gillies, R. J., Anal. Biochem. 159, 109-113, 1986; Kueng, W. et al.; Anal. Biochem., 182 16-19, 1989.)
(§3) One to two days after seeding cells in 96-well plates the culture medium is exchanged with fresh medium containing the compounds to be tested and fresh medium only for the control cultures. After varying time of incubation, cells are fixed with glutaric dialdehyde and stored under […] at 4° C. until the end of the experiment. Cells are stained with crystal violet and bound stain is extracted with 70% aqueous EtOH. Optical density is measured with EIA Reader (Bio-Tek Instruments) or Biomek 1000 (Beckman) at 590 nm or 600 nm, respectively. Each data point represents the mean value of eight culture wells. T/C values are calculated as T/C=(T-C0)/(C-C0) where T=optical density of treated cultures, C=optical density of control (untreated) cultures, C0 =optical density of cultures at the start of incubation (t=0).
Cells were incubated in IMEM media containing 5% Hl:DCC-FBS (heat inactivated dextran coated charcoal treated fetal bovine serum) on 96 well plates. Relative cell number in treated and control plates was determined by the crystal violet staining method and was expressed as T/C values where T/C=T-C0 /C-C0×100 [T=absorbance of treated cultures, C= absorbance of control cultures, C0 =absorbance of cultures at the start of incubation (t=0). The measured absorbance is proportionate to the cell number.]

[3] = system: MXT estrogen independent mouse mammary carcinoma cell line; assay: In vitro cytotoxic activity, crystal violet colorimetric assay on MXT; format: cell-based
From the text: as §1, §2, §3

## COc1cccc2c1C(=O)c1c(O)c3c(c(O)c1C2=O)C[C@@](O)(C(=O)CO)C[C@@H]3OC1CC(N2C=CCC2)C(O)C(C)O1 (stereo partly drawn) [Compound Q6, 3'-deamino-3'-(2"-pyrroline-1"-yl)doxorubicin]
[1]; 0.2 nmol/inj. i.p., total 21 nmol (Groups 5 and 9)
  Average survival: 13.0 days
[1]; 0.5 nmol/inj. i.p., 5 inj./week, total 7.5 nmol (Groups 3 and 7)
  Average survival: 19.6 days
[1]; 1.25 nmol on day 1, 2, 7 and 8
  Toxicity: strong toxicity
[1]; 1.25 nmol/inj. i.p., 2 inj./week, day 1, 2, 7 and 8 (Groups 2 and 6)
  Average survival: 17.4 days and 17.5 days
[1]; 0.25 * nmol/inj. i.p. (dose raised day 9 to 12), total 9.5 nmol (Groups 4 and 8)
  Average survival: 14.6 days
[1]; Group 2, 1.25 nmol on day 1, 2, 7 and 8, at day 16
  Average final tumor volume: 1065 mm^3
[2]; 3 × 10^-9 M, incubation 70 hr
  T/C Value: -18
[2]; 3 × 10^-9 M, incubation 120 hr
  T/C Value: -9
[2]; 3 × 10^-10 M, incubation 70 hr
  T/C Value: 50
[2]; 3 × 10^-10 M, incubation 120 hr
  T/C Value: 26
[2]; 10^-9 M, incubation 70 hr
  T/C Value: -3
[2]; 10^-9 M, incubation 120 hr
  T/C Value: 2
[2]; 3 × 10^-9 M, 70 hr
  T/C Value on MCF-7 Cell Line: -18
[2]; 3 × 10^-9 M, 120 hr
  T/C Value on MCF-7 Cell Line: -9
[2]; 10^-9 M, 70 hr
  T/C Value on MCF-7 Cell Line: -3
[2]; 10^-9 M, 120 hr
  T/C Value on MCF-7 Cell Line: 2
[2]; 10^-10 M (by column position), 70 hr
  T/C Value on MCF-7 Cell Line: 50
[2]; 10^-10 M (by column position), 120 hr
  T/C Value on MCF-7 Cell Line: 26
[3]; 3 × 1^-11 M (so in the source), 28 hr
  T/C value on MXT cell line: 90
[3]; 3 × 1^-11 M (so in the source), 69 hr
  T/C value on MXT cell line: 52
[3]; 3 × 10^-10 M, 28 hr
  T/C value on MXT cell line: 56
[3]; 3 × 10^-10 M, 69 hr
  T/C value on MXT cell line: -13
[3]; 10^-10 M, 28 hr
  T/C value on MXT cell line: 78
[3]; 10^-10 M, 69 hr
  T/C value on MXT cell line: 6
